# Test results reported in patent US7462636B2, “Broadspectrum substituted benzisoxazole sulfonamide HIV protease inhibitors” (priority 2002, dated 2008).
# Like-named read-outs stand apart in the source and are kept apart here.
# Tests used:
# [1] = system: HIV strain C (protease mutant); assay: Antiviral spectrum, mutant HIV strain C; assay type: cell-based; settings: FR=EC50(mutant strain)/EC50(HIV-1 strain LAI); calculated averages
# Procedure: (§1) HIV- or mock-infected MT4 cells were incubated for five days in the presence of various concentrations of the inhibitor. At the end of the incubation period, all HIV-infected cells have been killed by the replicating virus in the control cultures in the absence of any inhibitor. Cell viability is measured by measuring the concentration of MTT, a yellow, water soluble tetrazolium dye that is converted to a purple, water insoluble formazan in the mitochondria of living cells only. Upon solubilization of the resulting formazan crystals with isopropanol, the absorbance of the solution is monitored at 540 nm. The values correlate directly to the number of living cells remaining in the culture at the completion of the five day incubation. The inhibitory activity of the compound was monitored on the virus-infected cells and was expressed as EC50 and EC90. These values represent the amount of the compound required to protect 50% and 90%, respectively, of the cells from the cytopathogenic effect of the virus. […] Wherever results are reported as e.g. pEC50 or pCC50 values, the result is expressed as the negative logarithm of the result expressed as EC50 or CC50 respectively. […]
# (§2) As a measure of the broad spectrum activity of the present compounds, the fold resistance (FR), defined as FR=EC50(mutant strain)/EC50(HIV-1 strain LAI), was determined.
# [2] = system: HIV strain G (protease mutant); assay: Antiviral spectrum, mutant HIV strain G; assay type: cell-based; settings: FR=EC50(mutant strain)/EC50(HIV-1 strain LAI); calculated averages
# Procedure: as §1, §2
# [3] = system: HIV strain A (protease mutant); assay: Antiviral spectrum, mutant HIV strain A; assay type: cell-based; settings: FR=EC50(mutant strain)/EC50(HIV-1 strain LAI); calculated averages
# Procedure: as §1, §2
# [4] = system: HIV strain B (protease mutant); assay: Antiviral spectrum, mutant HIV strain B; assay type: cell-based; settings: FR=EC50(mutant strain)/EC50(HIV-1 strain LAI); calculated averages
# Procedure: as §1, §2
# [5] = system: HIV strain D (protease mutant); assay: Antiviral spectrum, mutant HIV strain D; assay type: cell-based; settings: FR=EC50(mutant strain)/EC50(HIV-1 strain LAI); calculated averages
# Procedure: as §1, §2
# [6] = system: HIV strain E (protease mutant); assay: Antiviral spectrum, mutant HIV strain E; assay type: cell-based; settings: FR=EC50(mutant strain)/EC50(HIV-1 strain LAI); calculated averages
# Procedure: as §1, §2
# [7] = system: HIV-1 strain LAI; assay: Cellular anti-HIV assay (MT4 cells, MTT), wild type strain; assay type: cell-based
# Procedure: The compounds of the present invention were examined for anti-viral activity in a cellular assay. […] The cellular assay was performed according to the following procedure.
# HIV- or mock-infected MT4 cells were incubated for five days in the presence of various concentrations of the inhibitor. At the end of the incubation period, all HIV-infected cells have been killed by the replicating virus in the control cultures in the absence of any inhibitor. Cell viability is measured by measuring the concentration of MTT, a yellow, water soluble tetrazolium dye that is converted to a purple, water insoluble formazan in the mitochondria of living cells only. Upon solubilization of the resulting formazan crystals with isopropanol, the absorbance of the solution is monitored at 540 nm. The values correlate directly to the number of living cells remaining in the culture at the completion of the five day incubation. The inhibitory activity of the compound was monitored on the virus-infected cells and was expressed as EC50 and EC90. […] Wherever results are reported as e.g. pEC50 or pCC50 values, the result is expressed as the negative logarithm of the result expressed as EC50 or CC50 respectively.
# as §2
# [8] = system: HIV strain F (protease mutant); assay: Antiviral spectrum, mutant HIV strain F; assay type: cell-based; settings: FR=EC50(mutant strain)/EC50(HIV-1 strain LAI); calculated averages
# Procedure: as §1, §2
# [9] = Oral availability in the rat (serum concentration, LC-MS); assay type: in vivo; settings: both sexes, 10 mg/kg
# Procedure: The oral availability of a selected compound was evaluated in a standard set of kinetic experiments, primarily in male and female rats and secondarily in male and female dogs. The compound was formulated as a 20 mg/ml solution or suspension in DMSO, PEG400 or cyclodextin 40% (CD40%) in water. For most experiments in the rat, three dosing groups were formed: 1/single intraperitoneal dose at 20 mg/kg using the DMSO formulation; 2/single oral dose at 20 mg/kg using the PEG400 formulation and 3/single oral dose at 20 mg/kg using the cyclodextrin formulation. In the dog, only the oral route of administration was used. Blood was sampled at regular time intervals after dosing and drug concentrations in the serum were determined using a LC-MS bioanalytical method. Serum concentrations were expressed in […] after normalization to 10 mg/kg. Below, the serum concentration at 30 minutes and at 3 hours is listed as these values reflect the extent of absorption (30′) and the speed of elimination (180′). The oral bioavailability in the rat was examined using DMSO and PEG formulations (cfr supra). The serum concentration following administration of 10 mg/kg of compound 1 was 10.2 ng/ml at 30 min (DMSO) and 22.2 ng/ml (PEG). The intraperitoneal absorption of a dose of 10 mg/kg (DMSO formulation) was 2076 ng/ml 30 minutes (min) following administration and 208 ng/ml 180 min following administration.
# [10] = Toxicity on mock-infected MT4 cells (MTT); assay type: cell-based; settings: human
# Procedure: HIV- or mock-infected MT4 cells were incubated for five days in the presence of various concentrations of the inhibitor. At the end of the incubation period, all HIV-infected cells have been killed by the replicating virus in the control cultures in the absence of any inhibitor. Cell viability is measured by measuring the concentration of MTT, a yellow, water soluble tetrazolium dye that is converted to a purple, water insoluble formazan in the mitochondria of living cells only. Upon solubilization of the resulting formazan crystals with isopropanol, the absorbance of the solution is monitored at 540 nm. The values correlate directly to the number of living cells remaining in the culture at the completion of the five day incubation. The inhibitory activity of the compound was monitored on the virus-infected cells and was expressed as EC50 and EC90. These values represent the amount of the compound required to protect 50% and 90%, respectively, of the cells from the cytopathogenic effect of the virus. […] Wherever results are reported as e.g. pEC50 or pCC50 values, the result is expressed as the negative logarithm of the result expressed as EC50 or CC50 respectively.
# as §2
Compound,FR towards mutant C [1],FR towards mutant G [2],FR towards mutant A [3],FR towards mutant B [4],FR towards mutant D [5],FR towards mutant E [6],WT (pEC50) ([7]; calculated averages),FR towards mutant F [8],"concentration at 30 min ([9]; ip, intraperitoneal, DMSO formulation, 30 min following administration, read-out: intraperitoneal absorption (serum concentration))","concentration at 180 min ([9]; ip, intraperitoneal, DMSO formulation, 180 min following administration, read-out: intraperitoneal absorption (serum concentration))","concentration at 30 min ([9]; po, oral, DMSO formulation, at 30 min, read-out: serum concentration)","concentration at 30 min ([9]; po, oral, PEG formulation, read-out: serum concentration)",CC50 at 5 days [10],"EC50 ([7]; Human immunodeficiency virus 1, calculated averages, read-out: WT (pEC50) (converted))"
5-Methyl-isoxazole-4-carboxylic acid{3-[(3-amino-benzo[d]isoxazole-5-sulfonyl)-isobutyl-amino]-1-benzyl-2-hydroxy-propyl}-amide [Compound 6],5.5,16,16,5.6,16,7.2,6.2,16,,,,,,
"CC(C)CN(C[C@@H](O)[C@H](Cc1ccccc1)NC(=O)O[C@H]1CO[C@H]2OCC[C@H]21)S(=O)(=O)c1ccc2onc(N)c2c1 [Compound 1, {3-[(3-Amino-benzo[d]isoxazole-5-sulfonyl)-isobutyl-amino]-1-benzyl-2-hydroxy-propyl}-carbamic acid hexahydro-furo[2,3-b]furan-3-yl ester]",0.49,6.9,0.63,0.78,0.35,0.30,,0.85,2080 ng/mL,208 ng/mL,10.2 ng/mL,22.2 ng/mL,> 100000 nM,7.94 nM
